Results on 26 compounds are retold here after paper PMC10478600, “Aryl derivatives of 3H-1,2-benzoxaphosphepine 2-oxides as inhibitors of cancer-related carbonic anhydrase isoforms IX and XII” (Journal of Enzyme Inhibition and Medicinal Chemistry, 2023).

Assay [1] addresses T1, CA I (Homo sapiens, UniProt P00915).
T1 construct: gene CA1; recombinant
Nature of the assay: stopped-flow CO2 hydrase assay. It is filed as biochemical. The settings on record: read-out: KI (μM)^a^,^b / CA I. The source says: stopped-flow CO2 hydrase assay on CA I

Assay [2] addresses T2, CA II (Homo sapiens, UniProt P00918).
T2 construct: gene CA2; recombinant
Kind of assay: stopped-flow CO2 hydrase assay. It is filed as biochemical. The following applies: read-out: KI (μM)^a^,^b / CA I. The source says:
stopped-flow CO2 hydrase assay on CA II

Assay [3] has as its target T1, CA I. Nature of the assay: biochemical. On the set-up: stopped-flow CO2 hydration assay of recombinant human CA isoforms, inhibition constant. The following applies: 6 h incubation. As to the method:
(§1) The CA-catalysed CO2 hydration activity was assayed by using an applied photophysics stopped-flow apparatus as reported in previous papers from our group. All CA isoforms were recombinant proteins, obtained as reported earlier. The newly synthesised compounds 7–10 were investigated for their CA inhibition activity against four pharmacologically relevant human CA isoforms—the ubiquitous cytosolic CA I and II as well as the cancer-associated CA IX and XII. In this study, CA I and CA II are considered off-target isoforms, that were tested in order to explore the selectivity of inhibitors towards the CA IX and CA XII isoforms. The clinically utilised acetazolamide (AAZ) was used as a reference drug. The following structure-activity relationship (SAR) can be deduced from the inhibition data reported in Table 1: It is worthwhile to underline here that a 6-h incubation of the enzyme and each compound 7–10 solutions is essential. When the incubation period of 15 min was used for assaying the inhibition, as generally done for the other types of CA inhibitors, only a weak inhibition was observed (data not shown). Furthermore, it appears to be the case with coumarins and related bioisosteres. […]

The target in assay [4] is T2, CA II. Nature of the assay: biochemical. The following applies: 6 h incubation. On the set-up: stopped-flow CO2 hydration assay of recombinant human CA isoforms, inhibition constant. Here is the method:
as §1

T1 sequence (P00915 2-261): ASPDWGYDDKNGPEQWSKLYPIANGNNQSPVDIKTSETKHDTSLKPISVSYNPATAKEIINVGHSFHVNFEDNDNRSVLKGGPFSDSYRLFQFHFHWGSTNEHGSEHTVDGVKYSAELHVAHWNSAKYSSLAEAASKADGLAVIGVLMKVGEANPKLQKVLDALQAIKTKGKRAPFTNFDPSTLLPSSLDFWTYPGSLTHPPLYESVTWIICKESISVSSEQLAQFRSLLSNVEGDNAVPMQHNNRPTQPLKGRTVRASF

For the compound `COc1ccc(-c2ccc3c(c2)C=CCP(=O)(O)O3)cc1` [8b, 2-Hydroxy-7–(4-methoxyphenyl)-3H-benzo[f][1,2]oxaphosphepine 2-oxide], the Ki in assay [1] and in assay [2] was greater than 100 µM in each case.
In the case of `COc1ccc(-c2cccc3c2OP(=O)(O)CC=C3)cc1` [10b, 2-Hydroxy-9–(4-methoxyphenyl)-3H-benzo[f][1,2]oxaphosphepine 2-oxide], the Ki in assay [1] and in assay [2] was greater than 100 µM each time.
As to `O=[N+]([O-])c1ccccc1-c1cccc2c1OP(=O)(O)CC=C2` [10f, 2-Hydroxy-9–(2-nitrophenyl)-3H-benzo[f][1,2]oxaphosphepine 2-oxide], the Ki in assay [1] and in assay [2] was greater than 100 µM in each case.
As for `O=P1(O)CC=Cc2ccc(-c3cc(Cl)cc(Cl)c3)cc2O1` [9e, 8–(3,5-Dichlorophenyl)-2-hydroxy-3H-benzo[f][1,2]oxaphosphepine 2-oxide], the Ki in assay [1] and in assay [2] was greater than 100 µM throughout.
Consider `O=P1(O)CC=Cc2cccc(-c3cc(Cl)cc(Cl)c3)c2O1` [10e, 9–(3,5-Dichlorophenyl)-2-hydroxy-3H-benzo[f][1,2]oxaphosphepine 2-oxide], for which the Ki in assay [1] and in assay [2] was greater than 100 µM in each case.
As for `O=P1(O)CC=Cc2ccc(Br)cc2O1` [7b, 8-Bromo-2-hydroxy-3H-benzo[f][1,2]oxaphosphepine 2-oxide], the Ki in assay [1] and in assay [2] was greater than 100 µM throughout.
As for `O=P1(O)CC=Cc2cc(-c3ccc(Cl)cc3)ccc2O1` [8e, 7–(4-Chlorophenyl)-2-hydroxy-3H-benzo[f][1,2]oxaphosphepine 2-oxide], the Ki in assay [1] and in assay [2] was greater than 100 µM in each case.
For `CCOC(=O)c1ccc(-c2ccc3c(c2)OP(=O)(O)CC=C3)cc1` [9c, Ethyl 4–(2-hydroxy-2-oxido-3H-benzo[f][1,2]oxaphosphepin-8-yl)benzoate], the Ki in assay [1] and in assay [2] was greater than 100 µM in each case.
As to `O=P1(O)CC=Cc2cccc(-c3ccc(Cl)cc3)c2O1` [10d, 9–(4-Chlorophenyl)-2-hydroxy-3H-benzo[f][1,2]oxaphosphepine 2-oxide], the Ki in assay [1] and in assay [2] was greater than 100 µM throughout.
For the compound `COC(=O)c1cccc(-c2ccc3c(c2)C=CCP(=O)(O)O3)c1` [8j, Methyl 3–(2-hydroxy-2-oxido-3H-benzo[f][1,2]oxaphosphepin-7-yl)benzoate], the Ki in assay [1] and in assay [2] was greater than 100 µM each time.
For the compound `CC(C)(C)c1ccc(-c2ccc3c(c2)C=CCP(=O)(O)O3)cc1` [8l, 7–(4-(tert-Butyl)phenyl)-2-hydroxy-3H-benzo[f][1,2]oxaphosphepine 2-oxide], the Ki in assay [1] and in assay [2] was greater than 100 µM throughout.
`O=P1(O)CC=Cc2ccc(-c3ccc(Cl)cc3)cc2O1` [9d, 8–(4-Chlorophenyl)-2-hydroxy-3H-benzo[f][1,2]oxaphosphepine 2-oxide]: the Ki in assay [1] and in assay [2] was greater than 100 µM in each case.
For the compound `O=P1(O)CC=Cc2cc(-c3ccc(F)cc3)ccc2O1` [8d, 7–(4-Fluorophenyl)-2-hydroxy-3H-benzo[f][1,2]oxaphosphepine 2-oxide], the Ki in assay [1] and in assay [2] was greater than 100 µM throughout.
`COc1ccc(-c2ccc3c(c2)OP(=O)(O)CC=C3)cc1` [9b, 2-Hydroxy-8–(4-methoxyphenyl)-3H-benzo[f][1,2]oxaphosphepine 2-oxide]: the Ki in assay [1] and in assay [2] was greater than 100 µM each time.
Consider `O=P1(O)CC=Cc2cc(-c3ccc(C(F)(F)F)cc3)ccc2O1` [8f, 2-Hydroxy-7–(4-(trifluoromethyl)phenyl)-3H-benzo[f][1,2]oxaphosphepine 2-oxide], for which the Ki in assay [1] and in assay [2] was greater than 100 µM throughout.
Consider `CCOC(=O)c1ccc(-c2ccc3c(c2)C=CCP(=O)(O)O3)cc1` [8c, Ethyl 4–(2-hydroxy-2-oxido-3H-benzo[f][1,2]oxaphosphepin-7-yl)benzoate], for which the Ki in assay [1] and in assay [2] was greater than 100 µM in each case.
Turning to `O=[N+]([O-])c1ccccc1-c1ccc2c(c1)OP(=O)(O)CC=C2` [9f, 2-Hydroxy-8–(2-nitrophenyl)-3H-benzo[f][1,2]oxaphosphepine 2-oxide], the Ki in assay [1] and in assay [2] was greater than 100 µM in each case.
In the case of “2-Hydroxy-7-(o-tolyl)-3H-benzo[f][1,2]oxaphosphepine 2-oxide [8i]”, the Ki in assay [1] ([…] h incubation) and in assay [2] ([…] h incubation) was greater than 100 µM each time.
Consider `CCOC(=O)c1ccc(-c2cccc3c2OP(=O)(O)CC=C3)cc1` [10c, Ethyl 4–(2-hydroxy-2-oxido-3H-benzo[f][1,2]oxaphosphepin-9-yl)benzoate], for which the Ki in assay [1] and in assay [2] was greater than 100 µM in each case.
Consider `O=P1(O)CC=Cc2cc(-c3ccccc3)ccc2O1` [8a, 2-Hydroxy-7-phenyl-3H-benzo[f][1,2]oxaphosphepine 2-oxide], for which the Ki in assay [1] and in assay [2] was greater than 100 µM each time.
For `O=P1(O)CC=Cc2ccc(-c3ccccc3)cc2O1` [9a, 2-Hydroxy-8-phenyl-3H-benzo[f][1,2]oxaphosphepine 2-oxide], the Ki in assay [1] and in assay [2] was greater than 100 µM each time.
With `O=P1(O)CC=Cc2cc(-c3cc(Cl)cc(Cl)c3)ccc2O1` [8g, 7–(3,5-Dichlorophenyl)-2-hydroxy-3H-benzo[f][1,2]oxaphosphepine 2-oxide], the Ki in assay [1] and in assay [2] was greater than 100 µM each time.
“7–(3-Fluorophenyl)-2-hydroxy-3H-benzo[f][1,2]oxaphosphepine 2-oxide [8h]”: the Ki in assay [1] (6 h incubation) and in assay [2] (6 h incubation) was greater than 100 µM in each case.
Regarding `O=P1(O)CC=Cc2cc(-c3cccc(F)c3)ccc2O1` [8h, 7-(3-Fluorophenyl)-2-hydroxy-3H-benzo[f][1,2]oxaphosphepine 2-oxide], the Ki in assay [3] and in assay [4] was greater than 100 µM each time.
On to `O=P1(O)CC=Cc2cccc(-c3ccccc3)c2O1` [10a, 2-Hydroxy-9-phenyl-3H-benzo[f][1,2]oxaphosphepine 2-oxide], for which the Ki in assay [1] and in assay [2] was greater than 100 µM throughout.
For the compound `O=[N+]([O-])c1cccc(-c2ccc3c(c2)C=CCP(=O)(O)O3)c1` [8k, 2-Hydroxy-7–(3-nitrophenyl)-3H-benzo[f][1,2]oxaphosphepine 2-oxide], the Ki in assay [1] and in assay [2] was greater than 100 µM throughout.
